Earlier results, collected in article PMC7589057, “Synthesis of Hantzsch Adducts as Cholinesterases and Calcium Flux inhibitors, Antioxidants and Neuroprotectives” (International Journal of Molecular Sciences, 2020).
Where two headings read alike, the source gives them in different places.

Tests used:
SH-SY5Y cells [1] = test system: SH-SY5Y cells; design: method as in PMID 27736061; conditions: 0.1 µM, cited from earlier work
SH-SY5Y cells [2] = test system: SH-SY5Y cells; design: method as in PMID 27736061; conditions: 0.1 µM; cited from earlier work

COc1ccc2[nH]cc(CCNC(C)=O)c2c1 [MEL, melatonin]
O/R (%) neuroprotection (SH-SY5Y cells [1]; listed as Melatonin): 66.6 ± 3.01 ***[10] % | O/R (%) neuroprotection (SH-SY5Y cells [1]; listed as melatonin): 66.6% | H2O2 (%) neuroprotection (SH-SY5Y cells [2]): 55.4 ± 7.73 *[10] %
